Source: patent US7973061B2, “Anaplastic lymphoma kinase modulators and methods of use” (Exelixis, Inc., priority 2004, dated 2011)

Biological target: T1, ALK (baculovirus expressed human ALK kinase domain F1098-K1410) (Homo sapiens, UniProt Q9UM73)
T1 construct: human ALK kinase domain F1098-K1410; made in house
Assay: biochemical
Details: 1 μM ATP, 4 μM poly-AEKY, 12 nM ALK, 2 hours at ambient temperature; read-out: ALK IC50
Method in brief: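 Baculovirus-expressed human ALK kinase domain (F1098-K1410) was run in a luciferase-coupled chemiluminescent format, with ATP near its KM. After 2 h at ambient temperature, remaining ATP was read by luciferase-luciferin luminescence. IC50 came from 10-point dose-response curves fitted to a four-parameter equation with Hill slope.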

T1 sequence (Q9UM73 1098-1410): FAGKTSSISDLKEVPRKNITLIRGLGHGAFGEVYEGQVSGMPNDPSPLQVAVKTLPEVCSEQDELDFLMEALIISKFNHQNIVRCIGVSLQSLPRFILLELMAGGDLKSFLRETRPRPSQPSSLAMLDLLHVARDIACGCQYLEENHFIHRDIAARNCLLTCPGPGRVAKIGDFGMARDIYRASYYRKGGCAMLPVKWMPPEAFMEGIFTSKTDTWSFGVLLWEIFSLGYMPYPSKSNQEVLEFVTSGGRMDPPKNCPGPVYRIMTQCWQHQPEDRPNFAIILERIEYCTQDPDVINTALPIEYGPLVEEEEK

CCC1COC(C)(CCC(C)C)N1C(=O)c1csc(CNC(=O)COc2ccc(OC(F)(F)F)cc2)n1 (centres unmarked) [Entry 310, N-[(4-{[4-ethyl-2-methyl-2-(3-methylbutyl)-1,3-oxazolidin-3-yl]carbonyl}-1,3-thiazol-2-yl)methyl]-2-({4-[(trifluoromethyl)oxy]phenyl}oxy)acetamide]
IC50: > 2000 nM

CCN(CC)C1CCN(C(=O)c2csc(CNC(=O)COc3ccc(OC(F)(F)F)cc3)n2)C1 (centres unmarked) [Entry 311, N-[(4-{[3-(diethylamino)pyrrolidin-1-yl]carbonyl}-1,3-thiazol-2-yl)methyl]-2-({4-[(trifluoromethyl)oxy]phenyl}oxy)acetamide]
IC50: > 2000 nM
